# Where two headings read alike, the source gives them in different places. Where no end group is shown, it is not given here.
# What was measured:
# Detroit 562 = test: WST-8 cell viability assay, Detroit 562; format: cell-based
# Protocol: (§1) Human oral squamous cell carcinoma (OSCC) cell lines, Ca922, OSC20, OECM-1, OC3, CGHNC9, HSC3, plus A549, MDA-MB-231, MCF7, Huh7, HeLa-Kyoto, Detroit 562, H520, H2170, and 293T cells were used in this study. Ca922, CGHNC9, MDA-MB-231, MCF7, Huh7, HeLa-Kyoto, Detroit 562, and 293T cells were all cultured in high-glucose Dulbecco's Modified Eagle Medium (DMEM). OSC20 and HSC3 cells were cultured in Dulbecco's Modified of Eagle's Medium/Ham's F-12 50/50 Mix (1:1). OECM-1, A549, H520, and H2170 cells were grown in RPMI-1640 medium. All culture media were supplemented with 10% fetal bovine serum (FBS) and 1% penicillin-streptomycin. OC3 cells were cultured in 1:1 DMEM/KSFM (keratinocyte serum-free medium) with supplied supplement of Bovine pituitary extract (BPE) and epidermal growth factor (EGF) followed by instruction. All the cells in this study were maintained at 37° C. in humidified atmosphere containing 5% CO2.
# (§2) WST-8 [2-(2-methoxy-4-nitrophenyl)-3-(4-nitrophenyl)-5-(2,4-disulfophenyl)-2H-tetrazolium, monosodium salt] cell viability assay
# (§3) Cells were seeded into 96 well plate and incubated at 37° C. overnight. Endpoint measures of TMR-GBP or drugs were performed by water soluble tetrazolium salt (WST-8)-based colorimetric assay in triplicate which measures the metabolic conversion of WST-8 into formazan by mitochondrial dehydrogenases present in viable cells. The amount of formazan produced is proportional to the number of live cells and is expressed as cellular viability. When time was up, media were removed and supplemented with WST-8 cell viability reagent-contained cell culture medium (1:10) and incubated at 37° C. for 2 hours. Besides, three wells with WST-8-dissolved medium only (without cells) were reserved as a background control. Cell viability was measured at the absorbance of 450/655 nm wavelength by ELISA reader.
# H2170 = test: WST-8 cell viability assay, H2170; format: cell-based
# Protocol: as §1, §2, §3
# H520 = test: WST-8 cell viability assay, H520; format: cell-based
# Protocol: as §1, §2, §3
# Ca922 cells [1] = test: WST-8 cell viability assay, Ca922; format: cell-based, human
# Protocol: as §1, §2, §3
# Ca922 cells [2] = test: Time-lapse live cell imaging, Ca922; format: cell-based; details: Ca922, 12.5 μM, exposed to 532 nm, 488 nm, 405 nm and brightfield, after 20 hours, FIG. 2
# Protocol: Ca922 cells were grown on 35 mm culture dishes overnight then treated with 1% DMSO, 12.5 μM TMR, GBP, TMR-GBP respectively and monitored by time-lapse live cell microscope. Cells were exposed to indicate wavelength once every 4 hours for 100 ms and continuously for 20 hours. At least 300 cells in five different fields were counted for each experiment using microcopy that captured images under 10× magnification. Mortality rate was evaluated by counting the percentage of dead cells in the whole population. Standard deviations of three independent experiments were indicated as bars.
# Time-Lapse Live Cell Imaging
# In order to monitor cell morphology and the stability of TMR-GBP, cells were incubated in 35 mm dish or 4 well dish at 37° C. overnight. Replaced the culture medium with CO2-independent medium with supplement of 10% fetal bovine serum (FBS) and 1% penicillin-streptomycin, cells were treated with reagent (TMR, GBP, TMR-GBP) for the time according to the experiment and subjected to time-lapse live cell imaging. Cells were maintained on the microscope stage incubator at 37° C. Multiple-positional time-lapse imaging was performed using an automated Leica DMI6000 inverted microscope equipped with an HCX PL FL 20λ/NA0.4 objective and Andor Luca R EMCCD camera. Images of cells were taken at different interval time and analyzed by MetaMorph software.
# Ca922 cells [3] = test: Annexin V staining with flow cytometry; format: cell-based, human; details: Ca922, 1% H2O2 positive control, FIG. 6A
# Protocol: […] Diluted 10× Binding Buffer to 1× using distilled water. Washed cells once in PBS, then once in 1× Binding Buffer. Resuspended cells in 1× Binding Buffer at 1-5×10^6/mL. Next, added 5 μL of fluorochrome-conjugated Annexin V to 100 μL of the cell suspension. Sample was incubated 10-15 minutes at room temperature. Afterwards, washed cells in 1× Binding Buffer and resuspend in 200 μL of 1× Binding Buffer. Analyzed by flow cytometry within 4 hours, storing at 2-8° C. in the dark.
# phospho-γH2Ax = test: Immunofluorescence staining of phospho-γH2Ax (DNA damage); format: cell-based, human; details: Ca922, H2O2 positive control, FIG. 10A
# Protocol: Representative images showing DAPI-labelled nucleus (shown in blue) co-stained with phospho-γH2Ax (green). Ca922 cells were treated with 25 μM TMR-GBP for 12 or 24 hours followed by immunofluorescence staining. Foci in the nucleus indicated damaged DNA. Scale bar indicates 10 μm.
# At least 20 cells were counted in each category. Bars indicate standard deviations from three independent experiments.
# Immunofluorescence Staining
# Cells grown on coverslips were washed with 1×PBS and fixed by PTEMF buffer (20 mM PIPES pH 6.8, 0.2% Triton X-100, 10 mM EGTA, 1 mM MgCl2, and 4% formaldehyde) or 4% paraformaldehyde for 10 minutes at room temperature. Then, fixation buffer was replaced with 1×PBST and the cells were washed with 1×PBST for another 10 minutes at room temperature. Coverslips were washed with 1×PBST twice gently and incubated with primary antibodies at room temperature for 1 hour. Next, washed with PBST for three times (2, 2, 5 minutes). Afterwards, coverslips were cultured in Alex Fluor-conjugated secondary antibodies and DAPI at room temperature for 30 minutes, washed three times (2, 2, 5 minutes), rinsed with ddH2O and mounted with mounting medium. Antibodies concentration used in this analysis is 1:1000 dilution. Images were acquired with specific fluorescence wavelength by Leica DMI6000 inverted microscope equipped with HCX PL FL 100λ/NA1.40 objective and EMCCD camera. All images were analyzed by MetaMorph software.
molecule,measurement,setting,value
"TMR-GBPR3QW4R: TMR conjugate of peptide GBPR3QW4R, NYQRRCKNQN (SEQ ID NO. 4) (not fully specified (N-terminus); also: TMR conjugate, site not given here; listed as Homo sapiens)",cytotoxicity (cell viability),Detroit 562,neither TMR-GBPR3QW4R nor TMR alone induce cytotoxicity
same,cytotoxicity (cell viability),H2170,neither TMR-GBPR3QW4R nor TMR alone induce cytotoxicity
same,cytotoxicity (cell viability),H520,neither TMR-GBPR3QW4R nor TMR alone induce cytotoxicity
same,cytotoxicity (cell viability),Ca922 cells [1],neither TMR-GBPR3QW4R nor TMR alone induce cytotoxicity
"TMR-GBPW4R: TMR conjugate of peptide GBPW4R, NYRRRCKNQN (SEQ ID NO. 3) (not fully specified (N-terminus); also: TMR conjugate, site not given here; listed as Homo sapiens)",cytotoxicity (cell viability),Detroit 562,could induce cytotoxicity
same,cytotoxicity (cell viability),H2170,could induce cytotoxicity
same,cytotoxicity (cell viability),H520,could induce cytotoxicity
"CN(C)c1ccc2c(-c3ccccc3C(=O)[O-])c3ccc(N(C)C)cc3[o+]c2c1 [TMR, Tetramethylrhodamine, reference compound]",cytotoxicity (cell viability),"Detroit 562; Detroit 562 (pharynx cancer), different concentrations, 48 hours, FIG. 5",neither TMR-GBPR3QW4R nor TMR alone induce cytotoxicity
same,cytotoxicity (cell viability),"H2170; H2170 (lung cancer), different concentrations, 48 hours, FIG. 5",neither TMR-GBPR3QW4R nor TMR alone induce cytotoxicity
same,cytotoxicity (cell viability),"H520; H520 (lung cancer), different concentrations, 48 hours, FIG. 5",neither TMR-GBPR3QW4R nor TMR alone induce cytotoxicity
same,cytotoxicity under light stress (mortality),Ca922 cells [2],more sensitive to 532 nm light stress and displayed cytotoxic effects
same,cytotoxicity (cell viability),"Ca922 cells [1]; Ca922 (oral cancer), different concentrations, 48 hours, FIG. 5",neither TMR-GBPR3QW4R nor TMR alone induce cytotoxicity
"OO [H2O2, reference compound]",apoptosis by Annexin-V-FITC labeling,Ca922 cells [3],induces apoptosis in Ca922
same,phospho-γH2Ax foci in the nucleus (DNA damage),phospho-γH2Ax,many foci were observed accumulating in the nucleus
"O=C(O)CN(CCOCCOCCN(CC(=O)O)CC(=O)O)CC(=O)O [EGTA, ethylene glycol tetraacetic acid, reference compound]",effect on cell viability,"Ca922 cells [1]; Ca922, 1 mM EGTA, 50 hours, FIG. 8A",no significant effect on cell viability

# From patent publication US11129867B2, “Method of treating cancer cells” (priority 2017, dated 2021)
